Source: patent publication US6689817B1, “Process for preparing guaifenesin tannate” (Jame Fine Chemicals, Inc., priority 2001, dated 2004)
Like-named read-outs stand apart in the source and are kept apart here.

Legend:
[1] = Methylene chloride solubility test of milled guaifenesin tannate powders (Example 4); format: physicochemical
Experimental: Two gram samples of finely milled guaifenesin tannate powders were taken from each of the products prepared in Examples 1-3. Each sample was mixed with 110 g of methylene chloride and was stirred for 10 minutes at ambient temperature. Each mixture was then filtered. The insoluble material was dried and weighed and the filtrate was evaporated to dryness and the residue was weighed The results were as follows: […]

[2] = background statement, cited from earlier work; for solubility in alcohols: alcohols such as methanol, ethanol, isopropanol
[3] = Solubility in water and organic solvents (descriptive)

Molecule | Insoluble Ppt. [1] | Soluble Ppt. [1] | solubility in alcohols [2] | solubility in water [2] | solubility in alcohols [3] | solubility in methylene chloride [3] | solubility in toluene [3] | solubility in water [3] | further results
guaifenesin tannate [Example 1] |  |  |  |  |  |  |  |  | Insoluble Ppt. ([1]; 2 g sample mixed with 110 g methylene chloride, stirred 10 minutes at ambient temperature, filtered, insoluble material dried and weighed): 1.94 g; Soluble Ppt. ([1]; 2 g sample mixed with 110 g methylene chloride, stirred 10 minutes at ambient temperature, filtrate evaporated to dryness, residue weighed): <8 mg
guaifenesin tannate |  |  |  |  |  |  |  |  | solubility in methylene chloride (conclusion from Example 4) [1]: insoluble
guaifenesin tannate [Example 2] | 1.95 g | <10 mg |  |  |  |  |  |  | 
guaifenesin tannate [Example 3] | 1.945 g | <7 mg |  |  |  |  |  |  | 
O=C(OC[C@H]1O[C@@H](OC(=O)c2cc(O)c(O)c(OC(=O)c3cc(O)c(O)c(O)c3)c2)[C@H](OC(=O)c2cc(O)c(O)c(OC(=O)c3cc(O)c(O)c(O)c3)c2)[C@@H](OC(=O)c2cc(O)c(O)c(OC(=O)c3cc(O)c(O)c(O)c3)c2)[C@@H]1OC(=O)c1cc(O)c(O)c(OC(=O)c2cc(O)c(O)c(O)c2)c1)c1cc(O)c(O)c(OC(=O)c2cc(O)c(O)c(O)c2)c1 [tannic acid] |  |  | highly soluble | highly soluble | soluble | insoluble | insoluble | soluble | solubility in chloroform ([3]; chloroform): insoluble
COc1ccccc1OCC(O)CO (centres unmarked) [guaifenesin, 3-(2-methoxyphenoxy)-1,2-propanediol] |  |  | readily soluble | about 5 wt. % | soluble | soluble | sparingly soluble | soluble | 
